Values of other authors, collected in patent US20220347117A1 (priority 2021, published 2022).

## C=CCN1CC[C@]23c4c5ccc(O)c4O[C@H]2C(=O)CC[C@@]3(O)[C@H]1C5 [naloxone]
  pKa: about 7.94
